Reference: PubChem BioAssay (NCI)
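Where inhibition never reached the appropriate level, the endpoint shown equals the highest concentration tested. Otherwise, values were interpolated linearly from a five-concentration, 48-hour dose response in 96-well plates. TGI: concentration producing complete growth inhibition.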

How the values were obtained:
Assay in all cases: NCI anticancer screen, dose series, 48 h
[1] = tested on: SF-539 CNS
[2] = tested on: SNB-75 CNS
[3] = tested on: UACC-257 melanoma
[4] = tested on: RXF 393 renal
[5] = tested on: SK-MEL-2 melanoma
[6] = tested on: ACHN renal
[7] = tested on: SK-MEL-5 melanoma
[8] = tested on: HT29 colon
[9] = tested on: TK-10 renal
[10] = tested on: CCRF-CEM leukemia
[11] = tested on: MDA-MB-231 breast
[12] = tested on: NCI-H226 lung
[13] = tested on: HS 578T breast

| SMILES | TGI [1] | TGI [2] | TGI [3] | TGI [4] | TGI [5] | TGI [6] | TGI [7] | TGI [8] | TGI [9] | TGI [10] | TGI [11] | TGI [12] | TGI [13] |
| --- | --- | --- | --- | --- | --- | --- | --- | --- | --- | --- | --- | --- | --- |
| COc1ccc(C2(CC(C)C)CCN(S(=O)(=O)c3ccc(C)cc3)C2)cc1OC (stereo not drawn) | > 100 µM | > 100 µM | > 100 µM | > 100 µM | 47.2 µM | > 100 µM | 32.6 µM | > 100 µM | > 100 µM | 64.3 µM | > 100 µM | > 100 µM | – |
| COC(=O)N[C@H](C(=O)NC(OCc1ccccc1)C1COC(C)(C)O1)C(C)O[Si](C)(C)C(C)(C)C (stereo partly drawn) | – | > 100 µM | > 100 µM | > 100 µM | – | > 100 µM | 65.8 µM | > 100 µM | > 100 µM | > 100 µM | – | – | > 100 µM |
| CC(=O)OCCOCNC(=S)N/N=C/c1ccc([N+](=O)[O-])s1 | > 100 µM | > 100 µM | 66.7 µM | > 100 µM | > 100 µM | > 100 µM | 81.7 µM | > 100 µM | > 100 µM | > 100 µM | – | > 100 µM | – |
| CC(=O)O[C@]12CCCCCC1C1(O)C(O)CCCCC12 (stereo partly drawn) | – | > 100 µM | > 100 µM | > 100 µM | > 100 µM | > 100 µM | > 100 µM | > 100 µM | > 100 µM | > 100 µM | – | > 100 µM | – |
| O=C1c2c(Br)sc(Br)c2C(=O)C1(O)O | 39.4 µM | > 100 µM | 37.4 µM | 37.6 µM | 86.7 µM | > 100 µM | 42.6 µM | > 100 µM | > 100 µM | 85 µM | – | > 100 µM | > 100 µM |
| NC1(CCNC(=O)c2ccccc2)CCN(C(=O)c2ccccc2)CC1 | > 100 µM | > 100 µM | > 100 µM | > 100 µM | > 100 µM | > 100 µM | > 100 µM | > 100 µM | > 100 µM | > 100 µM | – | > 100 µM | > 100 µM |
| Nc1c(S(=O)(=O)c2ccccc2)c2nc3ccccc3nc2n2c1nc1ccccc12 | > 53.9 µM | > 51.1 µM | > 100 µM | > 100 µM | > 100 µM | > 100 µM | > 66.2 µM | > 100 µM | > 100 µM | > 100 µM | – | > 75.1 µM | – |
| NCCCNCCCCN1CCOC1=O | > 100 µM | > 100 µM | > 100 µM | – | > 100 µM | > 100 µM | > 100 µM | > 100 µM | > 100 µM | > 100 µM | > 100 µM | > 100 µM | > 100 µM |
| C[n+]1c2ccccc2c(NC(CCCN=C(N)N)C(=O)O)c2ccccc21 (stereo not drawn) | > 100 µM | > 100 µM | > 100 µM | > 100 µM | > 100 µM | > 100 µM | > 100 µM | > 100 µM | > 100 µM | – | – | > 100 µM | – |
| COc1cccc(CC(=O)N2CCN(CCCc3ccccc3)CC2)c1 | > 100 µM | – | > 100 µM | – | > 100 µM | > 100 µM | 77.1 µM | > 100 µM | > 100 µM | > 100 µM | > 100 µM | > 100 µM | > 100 µM |
| Cc1ccc(C(=O)NCc2ccccc2)cc1N=NN(C)C | > 100 µM | – | 88.2 µM | – | > 100 µM | > 100 µM | > 100 µM | > 100 µM | > 100 µM | > 100 µM | > 100 µM | > 100 µM | > 100 µM |
| CCCCCCc1cc2cc(C(=O)Nc3ccc(F)cc3)c(=N)oc2cc1O | 4.82 µM | – | 29.2 µM | – | 9.98 µM | > 100 µM | 3.28 µM | > 100 µM | – | 3.8 µM | – | – | – |
| C=CC1(CC[C@]2(c3ccc(OC)c(OC)c3)C=[N+]([O-])O[C@H](O[C@@H]3CCCC[C@H]3C(C)(C)c3ccccc3)C2)OCC(C)(C)CO1 | 31.2 µM | > 52.2 µM | > 54.2 µM | > 48.4 µM | 28.7 µM | > 50 µM | 28.3 µM | 28.2 µM | > 67.8 µM | 23.8 µM | 33.9 µM | 38 µM | – |
| COc1cc2nc(-c3cccs3)nc(Cl)c2cc1OC | > 100 µM | > 100 µM | > 100 µM | – | > 100 µM | > 100 µM | > 100 µM | > 100 µM | > 100 µM | – | > 100 µM | > 100 µM | > 100 µM |
| CCOC(=O)CCC1(CCC(=O)OCC)CCCCCCCCC(CCC(=O)OCC)(CCC(=O)OCC)C(=O)C1=O | > 100 µM | > 100 µM | > 100 µM | – | > 100 µM | > 100 µM | > 100 µM | > 100 µM | > 100 µM | – | – | > 100 µM | > 100 µM |
| CCOC(=O)c1ccc(-c2ccc(Cl)cc2)[nH]1 | > 10 µM | > 10 µM | > 10 µM | – | > 10 µM | > 10 µM | > 10 µM | > 10 µM | > 10 µM | > 10 µM | – | > 10 µM | > 10 µM |
| O=c1[nH]nc(Cc2ccc(Cl)cc2)n1/N=C/c1cccs1 | > 100 µM | 49.9 µM | > 100 µM | 32.7 µM | 93.6 µM | > 100 µM | – | 40.2 µM | – | > 100 µM | 49.7 µM | > 100 µM | – |
| CCOC(=O)CCC(NC(=O)c1ccc(NCc2ccc3nc(-c4ccccc4)c(Cl)nc3c2)cc1)C(=O)OCC (stereo not drawn) | > 100 µM | > 100 µM | – | > 100 µM | 25.9 µM | > 100 µM | 23.7 µM | > 100 µM | > 100 µM | > 100 µM | – | > 100 µM | – |
| COc1ccc(/C(Cl)=C(\C#N)c2ccc(OC)c(OC)c2)cc1OC | > 100 µM | – | > 100 µM | > 100 µM | > 100 µM | > 100 µM | > 100 µM | > 100 µM | > 100 µM | – | > 100 µM | > 100 µM | – |
| CCOP(=O)(OCC)/C(C#N)=C/c1ccc(-c2cc(C(F)(F)F)cc(C(F)(F)F)c2)o1 | 35.3 µM | 27.9 µM | 30.6 µM | – | 38.8 µM | 50.2 µM | – | 21.9 µM | 35.5 µM | 34.3 µM | 26.8 µM | 32.6 µM | > 100 µM |
| CC1(C)O[C@H]2OC(CO)C(N=[N+]=[N-])[C@H]2O1 (stereo partly drawn) | > 100 µM | > 100 µM | > 100 µM | – | > 100 µM | > 100 µM | > 100 µM | > 100 µM | > 100 µM | > 100 µM | > 100 µM | – | > 100 µM |
| Cc1n[n+](Cc2ccccc2)c2sc(N)nn12 | > 100 µM | > 100 µM | > 100 µM | > 100 µM | > 100 µM | > 100 µM | > 100 µM | > 100 µM | > 100 µM | > 100 µM | – | > 100 µM | > 100 µM |
| Cc1ccc(NC(=O)C(=O)C2C(=O)NC(=O)NC2=O)cc1C | > 100 µM | > 100 µM | > 100 µM | > 100 µM | > 100 µM | > 100 µM | > 100 µM | > 100 µM | > 100 µM | > 100 µM | – | > 100 µM | – |
| CN1CCN(/C(N)=C(\C#N)C(=O)Nc2ccc(Cl)cc2)CC1 | > 100 µM | > 100 µM | > 100 µM | – | > 100 µM | > 100 µM | > 100 µM | > 100 µM | – | > 100 µM | – | > 100 µM | – |
| O=C1c2ccccc2C(=O)N1C/C=N/NS(=O)(=O)c1ccc(Br)cc1 | > 100 µM | > 100 µM | > 100 µM | – | > 100 µM | > 100 µM | > 100 µM | > 100 µM | > 100 µM | > 100 µM | – | > 100 µM | – |
| COc1cccc(-c2nc(-c3cnccn3)n(C/C=C/c3ccccc3)n2)c1 | > 10 µM | > 10 µM | > 10 µM | – | > 10 µM | > 10 µM | – | > 10 µM | > 10 µM | > 10 µM | – | > 10 µM | > 10 µM |
| CN1CCCOC(c2ccc(Cl)cc2)O1 (stereo not drawn) | > 100 µM | > 100 µM | > 100 µM | > 100 µM | > 100 µM | > 100 µM | > 100 µM | > 100 µM | > 100 µM | > 100 µM | > 100 µM | > 100 µM | – |
| CCCC(=O)[O-].CCCC(=O)[O-].NCCN.NCCN.[Co+3].[O-][Cl+3]([O-])([O-])[O-] | > 100 µM | > 100 µM | > 100 µM | – | > 100 µM | > 100 µM | > 100 µM | > 100 µM | > 100 µM | > 100 µM | – | – | – |
| CSc1ccc2c(cc1=O)[C@@H](NC(=O)c1cc(O)c(O)c(O)c1)CCc1cc(O)c(O)c(O)c1-2 | 52.3 µM | 53.7 µM | 34.3 µM | – | – | > 100 µM | 36.1 µM | 48.7 µM | > 100 µM | 18.1 µM | – | 35 µM | – |
| COC(=O)C1=C(OC)[C@H]2C#C/C=C\C#C[C@@H]3Nc4c(cc(O)c5c4C(=O)c4ccccc4C5=O)[C@]24O[C@@]34[C@H]1C | < 0.01 µM | < 0.01 µM | 0.0363 µM | – | 0.206 µM | < 0.01 µM | < 0.0149 µM | < 0.0409 µM | 0.176 µM | < 0.01 µM | 0.0179 µM | < 0.01 µM | 3.82 µM |
